Test results taken from patent publication US7582627B2, “3-aminoquinazolin-2,4-dione antibacterial agents” (Warner-Lambert Company, priority 2000, dated 2009).
Where a name gives a salt, the structure may show the parent alone.

melting point	SMILES
180 to 182 °C	COc1c(N2CCC(CN)C2)c(F)cc2c(=O)n(N)c(=O)n(C3CC3)c12.Cl (stereo not drawn)
246 °C	Cc1c(N2CC(C(C)N)C(C)(C)C2)c(F)cc2c(=O)n(N)c(=O)n(C3CC3)c12.Cl (stereo not drawn)
213 to 215 °C	Cl.N[C@H]1CCN(c2nc3c(cc2F)c(=O)n(N)c(=O)n3C2CC2)C1
170 to 172 °C	Cl.NCC1CCN(c2cc3c(cc2F)c(=O)n(N)c(=O)n3C2CC2)C1 (stereo not drawn)
> 250 °C	COc1c(N2CCC3(CC3N)C2)c(F)cc2c(=O)n(N)c(=O)n(C3CC3)c12.Cl (stereo not drawn)
210 °C	Cc1c(N2CCC(C)(CN)C2)c(F)cc2c(=O)n(N)c(=O)n(C3CC3)c12.Cl (stereo not drawn)
125 to 127 °C	CC(C)NCC1CCN(c2c(F)cc3c(=O)n(N)c(=O)n(C4CC4)c3c2Cl)C1.Cl (stereo not drawn)
147 to 149 °C	Cl.NCC1CCN(c2c(Cl)cc3c(=O)n(N)c(=O)n(C4CC4)c3c2Cl)C1 (stereo not drawn)
152 to 154 °C	Cl.Cl.NCC1CCCN(c2nc3c(cc2F)c(=O)n(N)c(=O)n3C2CC2)C1 (stereo not drawn)
> 250 °C	Cc1c(N2CC3CCCCC3(CN)C2)c(F)cc2c(=O)n(N)c(=O)n(C3CC3)c12.Cl (stereo not drawn)
220 °C	Cc1c(N2C[C@@H](CN)[C@H](C)C2)c(F)cc2c(=O)n(N)c(=O)n(C3CC3)c12.Cl (relative stereo)
202 to 204 °C	CC1CCc2c(N3CC[C@H](N)C3)c(F)cc3c(=O)n(N)c(=O)n1c23 (stereo partly drawn) (as salt: hydrochloride)
221 to 223 °C	COc1c(N2CC[C@H]([C@H](C)N)C2)c(F)cc2c(=O)n(N)c(=O)n(C3CC3)c12.Cl
131 to 133 °C	Cl.NCC1CCCN(c2c(F)cc3c(=O)n(N)c(=O)n(C4CC4)c3c2Cl)C1 (stereo not drawn)
189 to 194 °C	Cc1c(N2CC3CC3(CN)C2)c(F)cc2c(=O)n(N)c(=O)n(C3CC3)c12.Cl (stereo not drawn)
92 to 94 °C	COc1c(N2CCCC2)c(F)cc2c(=O)n(N)c(=O)n(C3CC3)c12.Cl
194 to 196 °C	Cc1c(N2CC[C@H]([C@@H](C)N)C2)c(F)cc2c(=O)n(N)c(=O)n(C3CC3)c12.Cl [Compound 75]
174 to 175 °C	Cl.N[C@@H]1CN(c2c(F)cc3c(=O)n(N)c(=O)n(C4CC4)c3c2Cl)C[C@H]1c1ccccc1 (relative stereo)

The next lines start with the compound.

SMILES	melting point
CN[C@H](C)[C@@H]1CCN(c2nc3c(cc2F)c(=O)n(N)c(=O)n3C2CC2)C1.Cl	137 to 139 °C
COc1c(N2C[C@@H](CN)[C@H](C(F)(F)F)C2)c(F)cc2c(=O)n(N)c(=O)n(C3CC3)c12.Cl (relative stereo)	205 to 207 °C
Cc1c(N2CCC(CN)(c3ccccc3)C2)c(F)cc2c(=O)n(N)c(=O)n(C3CC3)c12.Cl (stereo not drawn)	227 to 231 °C
CC(C)(N)[C@@H]1CCN(c2nc3c(cc2F)c(=O)n(N)c(=O)n3C2CC2)C1.Cl	> 260 °C
COC1(C(C)N)CCN(c2c(F)cc3c(=O)n(N)c(=O)n(C4CC4)c3c2C)C1.Cl (stereo not drawn)	190 to 192 °C
COc1c(N2CC(N)C(OC)C2)c(F)cc2c(=O)n(N)c(=O)n(C3CC3)c12.Cl (stereo not drawn)	> 250 °C
Cc1c(N2CCC(N)(c3ccccc3)C2)c(F)cc2c(=O)n(N)c(=O)n(C3CC3)c12.Cl (stereo not drawn)	236 °C
CC1CCc2c(N3CC[C@@H]([C@H](C)N)C3)c(F)cc3c(=O)n(N)c(=O)n1c23.Cl (stereo partly drawn)	197 to 199 °C
Cc1c(F)c(N2CC[C@H]([C@@H](C)N)C2)cc2c1c(=O)n(N)c(=O)n2C1CC1.Cl	245 to 247 °C
Nc1c(F)c(N2CC[C@H](N)C2)c(F)c2c1c(=O)n(N)c(=O)n2C1CC1 (as salt: hydrochloride) [Compound 11, 7-((S)-3-Aminopyrrolidin-1-yl)-1-cyclopropyl-3,5-diamino-6,8-difluoro-1H-quinazoline-2,4-dione hydrochloride]	215 to 218 °C (dec.)
CN[C@@H](C)[C@@H]1CCN(c2cc3c(c(C)c2F)c(=O)n(N)c(=O)n3C2CC2)C1.Cl	182 to 185 °C
Cc1c(F)c(N2CCC(N)C2)cc2c1c(=O)n(N)c(=O)n2C1CC1.Cl (stereo not drawn)	238 to 240 °C
